Laboratory results: patent publication US9636339B2, “Phenyl-dihydropyridine derivatives as aldosterone synthase inhibitors” (Hoffmann-La Roche Inc., priority 2013, dated 2017)

Columns and labels:
human CYP11B2 = human CYP11B2 (Homo sapiens (Human), UniProt P19099); assay: G-402 cellular enzyme assay, human CYP11B2 (aldosterone release); type: cell-based; conditions: G-402 cells, 1 μM Deoxycorticosterone
Text: (§1) Herein we identified the use of the G-402 cell line as a host cell to ectopically express (transiently or stably) enzymes of the CYP11 family. Specifically we developed stable G-402 cells expressing ectopically human CYP11B1, human CYP11B2, human CYP11A1, cynmolgus CYP11B1 or cynomolgus CYP11B2 enzyme activity. Importantly the identified cell line G-402 expresses co-factors (adrenodoxin and adrenodoxin reductase) important for the activity of the CYP11 family and no relevant enzyme activity of the CYP11 family (in comparison to H295R cells) was detected in these cells. Therefore the G-402 cell line is uniquely suited as a host cell for the ectopic expression of enzymes from the CYP11 family. G-402 cells can be obtained from ATCC (CRL-1440) and were originally derived from a renal leiomyoblastoma.
(§2) The expression plasmids contains the ORF for either human/cyno CYP11B1 or CYP11B2 under the control of a suitable promoter (CMV-promoter) and a suitable resistance marker (neomycin). Using standard techniques the expression plasmid is transfected into G-402 cells and these cells are then selected for expressing the given resistance markers. Individual cell-clones are then selected and assessed for displaying the desired enzymatic activity using 11-Deoxycorticosterone (Cyp11B2) or 11-Deoxycortisol (Cyp11B1) as a substrate.
(§3) G-402 cells expressing CYP11 constructs were established as described above and maintained in McCoy's 5a Medium Modified, ATCC Catalog No. 30-2007 containing 10% FCS and 400 μg/ml G418 (Geneticin) at 37° C. under an atmosphere of 5% CO2/95% air. Cellular enzyme assays were performed in DMEM/F12 medium containing 2.5% charcoal treated FCS and appropriate concentration of substrate (0.3-10 uM 11-Deoxycorticosterone, 11-Deoxycortisol or Corticosterone). For assaying enzymatic activity, cells were plated onto 96 well plates and incubated for 16 h. An aliquot of the supernatant is then transferred and analyzed for the concentration of the expected product (Aldosterone for CYP11B2; Cortisol for CYP11B1). The concentrations of these steroids can be determined using HTRF assays from CisBio analyzing either Aldosterone or Cortisol.
(§4) Inhibition of the release of produced steroids can be used as a measure of the respective enzyme inhibition by test compounds added during the cellular enzyme assay. The dose dependent inhibition of enzymatic activity by a compound is calculated by means of plotting added inhibitor concentrations (x-axes) vs. measured steroid/product level (y-axes). The inhibition is then calculated by fitting the following 4-parameter sigmoidal function (Morgan-Mercer-Flodin (MMF) model) to the raw data points using the least squares method:
(§5) [formula] wherein, A is the maximum y value, B is the EC50 factor determined using XLFit, C is the minimum y value and D is the slope value.
(§6) EC50 values for compounds claimed herein were tested with the G402-based assay system described. Cyp11B2 enzyme activity was tested in presence of 1 μM Deoxycorticosterone and variable amounts of inhibitors; Cyp11B1 enzyme activity was tested in presence of 1 μM Deoxycortisol and variable amounts of inhibitors.

human CYP11B1 = human CYP11B1 (Homo sapiens (Human), UniProt P15538); assay: G-402 cellular enzyme assay, human CYP11B1 (cortisol release); type: cell-based; conditions: G-402 cells, 1 μM Deoxycortisol
human CYP11B1, sequence (P15538 25-503): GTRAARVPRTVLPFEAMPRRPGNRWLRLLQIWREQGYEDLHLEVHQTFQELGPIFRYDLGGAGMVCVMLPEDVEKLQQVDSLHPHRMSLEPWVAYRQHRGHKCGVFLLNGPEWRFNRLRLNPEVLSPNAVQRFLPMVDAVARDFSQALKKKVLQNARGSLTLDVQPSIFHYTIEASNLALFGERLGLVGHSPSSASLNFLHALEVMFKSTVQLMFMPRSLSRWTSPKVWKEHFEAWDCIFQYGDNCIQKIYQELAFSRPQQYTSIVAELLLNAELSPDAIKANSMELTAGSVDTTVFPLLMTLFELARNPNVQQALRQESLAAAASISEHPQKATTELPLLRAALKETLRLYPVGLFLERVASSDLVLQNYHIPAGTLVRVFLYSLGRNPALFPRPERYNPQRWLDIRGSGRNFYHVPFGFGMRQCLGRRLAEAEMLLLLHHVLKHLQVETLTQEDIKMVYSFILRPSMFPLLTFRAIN
Text: as §1, §2, §3, §4, §5, §6

[1] = test system: rats with experimental heart failure; conditions: rat, in vivo; cited from earlier work
[2] = test system: rat model of chronic kidney disease; conditions: cited from earlier work; for plasma aldosterone: FAD286: 4 weeks of treatment, spironolactone: 4 and 8 weeks of treatment; for angiotensin II and salt-stimulated PAI-1 mRNA expression: aorta and heart; for renal effects of angiotensin II and high salt (albuminuria, azotemia, renovascular hypertrophy, glomerular injury, PAI-1, osteopontin mRNA, tubulointerstitial fibrosis): rat, in vivo
[3] = test system: patients with primary aldosteronism; conditions: oral; cited from earlier work

human CYP11B2, sequence (P19099 25-503): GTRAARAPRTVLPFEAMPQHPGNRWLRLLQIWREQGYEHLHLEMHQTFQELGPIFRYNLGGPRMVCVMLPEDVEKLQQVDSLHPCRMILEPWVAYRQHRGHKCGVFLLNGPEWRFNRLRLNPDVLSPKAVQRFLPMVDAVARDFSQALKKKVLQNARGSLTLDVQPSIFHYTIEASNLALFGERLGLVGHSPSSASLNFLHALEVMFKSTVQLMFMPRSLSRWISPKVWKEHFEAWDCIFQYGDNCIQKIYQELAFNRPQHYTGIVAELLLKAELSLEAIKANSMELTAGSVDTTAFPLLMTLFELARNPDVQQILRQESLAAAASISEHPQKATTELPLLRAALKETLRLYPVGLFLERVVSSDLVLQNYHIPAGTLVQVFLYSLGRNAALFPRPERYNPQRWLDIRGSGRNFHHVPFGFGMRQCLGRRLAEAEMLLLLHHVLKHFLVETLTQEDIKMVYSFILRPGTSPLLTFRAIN

Molecule OCCC1CCCc2c(-c3ccc(C(F)(F)F)cc3F)cncc21 (racemic) [Example 24, (rac)-2-[4-[2-Fluoro-4-(trifluoromethyl)phenyl]-5,6,7,8-tetrahydroisoquinolin-8-yl]ethanol] has an EC50 (human CYP11B2) of 5 nM and an EC50 (human CYP11B1) of 85 nM.
Work on CNC(=O)CC1CCCc2c(-c3ccc(C(F)(F)F)cc3F)cncc21 (racemic) [Example 25, (rac)-2-[4-[2-Fluoro-4-(trifluoromethyl)phenyl]-5,6,7,8-tetrahydroisoquinolin-8-yl]-N-methyl-acetamide] yielded an EC50 (human CYP11B2) of 11 nM and an EC50 (human CYP11B1) of 1040 nM.
With CN(C)C(=O)CC1CCCc2c(-c3ccc(C(F)(F)F)cc3F)cncc21 (racemic) [Example 26, (rac)-2-[4-[2-Fluoro-4-(trifluoromethyl)phenyl]-5,6,7,8-tetrahydroisoquinolin-8-yl]-N,N-dimethyl-acetamide] the EC50 (human CYP11B2) was 32 nM and the EC50 (human CYP11B1) was 3080 nM.
CCNC(=O)CC1CCCc2c(-c3ccc(C(F)(F)F)cc3F)cncc21 (racemic) [Example 29, (rac)-N-Ethyl-2-[4-[2-fluoro-4-(trifluoromethyl)phenyl]-5,6,7,8-tetrahydroisoquinolin-8-yl]acetamide] showed an EC50 (human CYP11B2) of 212 nM and an EC50 (human CYP11B1) of 4080 nM.
In the case of O=C(CC1CCCc2c(-c3ccc(C(F)(F)F)cc3F)cncc21)NC1CC1 (racemic) [Example 30, (rac)-N-Cyclopropyl-2-[4-[2-fluoro-4-(trifluoromethyl)phenyl]-5,6,7,8-tetrahydroisoquinolin-8-yl]acetamide], the EC50 (human CYP11B2) is reported as 37 nM and the EC50 (human CYP11B1) is reported as 448 nM.
In the case of O=C(CC1CCCc2c(-c3ccc(C(F)(F)F)cc3F)cncc21)NCC1CC1 (racemic) [Example 31, (rac)-N-(Cyclopropylmethyl)-2-[4-[2-fluoro-4-(trifluoromethyl)phenyl]-5,6,7,8-tetrahydroisoquinolin-8-yl]acetamide], the EC50 (human CYP11B2) is reported as 71 nM and the EC50 (human CYP11B1) is reported as 1780 nM.
COCCNC(=O)CC1CCCc2c(-c3ccc(C(F)(F)F)cc3F)cncc21 (racemic) [Example 32, (rac)-2-[4-[2-Fluoro-4-(trifluoromethyl)phenyl]-5,6,7,8-tetrahydroisoquinolin-8-yl]-N-(2-methoxyethyl)acetamide] gave an EC50 (human CYP11B2) of 222 nM and an EC50 (human CYP11B1) of 5060 nM.
Molecule CN(C)C(=O)CC1CCCc2c(-c3ccc(C(F)(F)F)cc3F)cncc21 (single isomer, unassigned; (+)) [Example 27, (+)-(R or S)-2-[4-[2-fluoro-4-(trifluoromethyl)phenyl]-5,6,7,8-tetrahydroisoquinolin-8-yl]-N,N-dimethyl-acetamide] has an EC50 (human CYP11B2) of 36 nM and an EC50 (human CYP11B1) of 1490 nM.
Molecule CN(C)C(=O)CC1CCCc2c(-c3ccc(C(F)(F)F)cc3F)cncc21 (single isomer, unassigned; (-)) [Example 28, (−)-(R or S)-2-[4-[2-fluoro-4-(trifluoromethyl)phenyl]-5,6,7,8-tetrahydroisoquinolin-8-yl]-N,N-dimethyl-acetamide] has an EC50 (human CYP11B2) of 133 nM and an EC50 (human CYP11B1) of 9110 nM.
For N#Cc1ccc([C@H]2CCCc3cncn32)cc1 [FAD286], the “blood pressure and cardiovascular function and structure” value [1] is listed as “improved”, the “kidney function and morphology” value [1] is listed as “improve” and the plasma aldosterone [2] is listed as “reduced”. For the same molecule, the “angiotensin II and salt-stimulated PAI-1 mRNA expression” value [2] was “not” and the “renal effects of angiotensin II and high salt (albuminuria, azotemia, renovascular hypertrophy, glomerular injury, PAI-1, osteopontin mRNA, tubulointerstitial fibrosis)” value [2] was “prevented”.
For N#Cc1ccc([C@H]2CCc3cncn32)c(F)c1 [LCI699], the blood pressure [3] is given as “mildly decreased”, the circulating aldosterone levels [3] is given as “significantly lower” and the hypokalemia [3] is given as “corrected”.
For CC(=O)S[C@@H]1CC2=CC(=O)CC[C@]2(C)[C@H]2CC[C@@]3(C)[C@@H](CC[C@@]34CCC(=O)O4)[C@H]12 [spironolactone], the plasma aldosterone [2] is listed as “increased”, the “angiotensin II and salt-stimulated PAI-1 mRNA expression” value [2] is listed as “enhanced” and the “renal effects of angiotensin II and high salt (albuminuria, azotemia, renovascular hypertrophy, glomerular injury, PAI-1, osteopontin mRNA, tubulointerstitial fibrosis)” value [2] is listed as “prevented”.
